Experimental data reported in PubChem BioAssay AID330 (DTP/NCI, 2004).
Values joined by “and” are separate entries in the source; they are usually repeats but may differ in a detail not shown here. Identical values can stand only once. Toxic doses and inconclusive results are not listed. Peptide text beside a SMILES is read from it. * marks the point of attachment. Cbz = O=C(OCc1ccccc1)*; OBn = c1ccc(CO*)cc1

Tested on: P388 leukemia ip, CD2F1 mice, survival T/C
Assay: NCI In Vivo Anticancer Drug Screen. Data for tumor model P388 Leukemia (intraperitoneal) in CD2F1 (CDF1) mice
Conditions: endpoint: median survival time, higher = longer survival
Summary of the method: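 Mice carrying the transplanted tumor received test compound or vehicle. Survival was recorded in each group, and the value is the treated-group measurement divided by that of the vehicle-treated control group.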

[1] = dose: 50.0 mg/kg/injection, schedule: Q01DX005 (ip), vehicle: Klucel (hydroxypropylcellulose) (HPC)
[2] = dose: 100.0 mg/kg/injection, schedule: Q01DX005 (ip), vehicle: Klucel (hydroxypropylcellulose) (HPC)
[3] = dose: 200.0 mg/kg/injection, schedule: Q01DX005 (ip), vehicle: Klucel (hydroxypropylcellulose) (HPC)
[4] = dose: 50.0 mg/kg/injection, schedule: Q01DX009 (ip), vehicle: saline with Tween-80
[5] = dose: 100.0 mg/kg/injection, schedule: Q01DX009 (ip), vehicle: saline with Tween-80
[6] = dose: 200.0 mg/kg/injection, schedule: Q01DX009 (ip), vehicle: saline with Tween-80
[7] = dose: 12.5 mg/kg/injection, schedule: Q01DX005 (ip), vehicle: Klucel (hydroxypropylcellulose) (HPC)
[8] = dose: 25.0 mg/kg/injection, schedule: Q01DX005 (ip), vehicle: Klucel (hydroxypropylcellulose) (HPC)
[9] = dose: 50.0 mg/kg/injection, schedule: Q01DX001 (ip), vehicle: Klucel (hydroxypropylcellulose) (HPC)
[10] = dose: 50.0 mg/kg/injection, schedule: Q01DX009 (ip), vehicle: saline
[11] = dose: 100.0 mg/kg/injection, schedule: Q01DX009 (ip), vehicle: saline
[12] = dose: 50.0 mg/kg/injection, schedule: Q01DX005 (ip), vehicle: saline with Tween-80
[13] = dose: 200.0 mg/kg/injection, schedule: Q01DX005 (ip), vehicle: saline with Tween-80
[14] = dose: 60.0 mg/kg/injection, schedule: Q01DX005 (ip), vehicle: saline with Tween-80
[15] = dose: 120.0 mg/kg/injection, schedule: Q01DX005 (ip), vehicle: saline with Tween-80
[16] = dose: 240.0 mg/kg/injection, schedule: Q01DX005 (ip), vehicle: saline with Tween-80
[17] = dose: 50.0 mg/kg/injection, schedule: Q01DX009 (ip), vehicle: Klucel (hydroxypropylcellulose) (HPC)
[18] = dose: 100.0 mg/kg/injection, schedule: Q01DX009 (ip), vehicle: Klucel (hydroxypropylcellulose) (HPC)
[19] = dose: 200.0 mg/kg/injection, schedule: Q01DX009 (ip), vehicle: Klucel (hydroxypropylcellulose) (HPC)

SMILES: Cc1ccnc(NS(=O)(=O)c2ccc(NC(=O)Nc3cccc(Cl)c3)cc2)n1
- T/C [1]: 86 % of control
- T/C [2]: 87 % of control
- T/C [3]: 89 % of control

SMILES: CCC[As](C)SC1OC(COC(C)=O)C(OC(C)=O)C(OC(C)=O)C1OC(C)=O (stereo not given)
- T/C [4]: 110 % of control
- T/C [5]: 110 % of control
- T/C [6]: 110 % of control

SMILES: C[C@]12C=CC(=O)C=C1CC[C@@H]1[C@@H]2C(=O)C[C@@]2(C)[C@H]1CC[C@]2(O)C(=O)COC(=O)CSc1c2ccccc2nc2ccccc12
- T/C [7]: 103 % of control
- T/C [8]: 100 % of control
- T/C [1]: 104 % of control and 107 % of control
- T/C [2]: 107 % of control
- T/C [3]: 102 % of control

SMILES: Oc1ccc(Nc2ccc(N(CCCl)CCCl)cc2)c2ccccc12
- T/C (dose: 6.25 mg/kg/injection, schedule: Q01DX001 (ip), vehicle: Klucel (hydroxypropylcellulose) (HPC)): 123 % of control
- T/C [9]: 192 % of control and 195 % of control

SMILES: CC1C(=O)C(C)C(c2ccccc2)NC1c1ccccc1 (stereo not given)
- T/C [10]: 99 % of control
- T/C [11]: 98 % of control
- T/C (dose: 200.0 mg/kg/injection, schedule: Q01DX009 (ip), vehicle: saline): 89 % of control

SMILES: CC(C)C(NC(=O)C(Cc1ccccc1)NC(=O)OCc1ccccc1)C(=O)OCc1ccccc1 (stereo not drawn) (Cbz-Phe-Val-OBn; configuration not given here)
- T/C (dose: 12.5 mg/kg/injection, schedule: Q01DX005 (ip), vehicle: saline with Tween-80): 93 % of control
- T/C (dose: 25.0 mg/kg/injection, schedule: Q01DX005 (ip), vehicle: saline with Tween-80): 100 % of control
- T/C [12]: 91 % of control and 97 % of control
- T/C [13]: 92 % of control

SMILES: O=C1CSC(c2cccc(Br)c2)N1c1nncs1 (stereo not given)
- T/C [14]: 101 % of control
- T/C [15]: 97 % of control
- T/C [16]: 93 % of control

SMILES: CCOc1ccc(C(CC)c2cc3c(cc2OCC)OCO3)cc1 (stereo not given)
- T/C [14]: 100 % of control
- T/C [15]: 111 % of control
- T/C [16]: 110 % of control

SMILES: CCCCCCOC(=O)CC1CC(C(C)=O)C1(C)C (stereo not given)
- T/C [17]: 94 % of control
- T/C [18]: 106 % of control
- T/C [19]: 109 % of control
- T/C (dose: 400.0 mg/kg/injection, schedule: Q01DX009 (ip), vehicle: Klucel (hydroxypropylcellulose) (HPC)): 117 % of control

SMILES: NS(=O)(=O)c1ccc(NC(=O)c2cccnc2Nc2cccc(Cl)c2)cc1
- T/C [14]: 103 % of control
- T/C [15]: 102 % of control
- T/C [16]: 101 % of control

SMILES: Nc1nc(Nc2ccccc2)n[nH]1
- T/C [17]: 102 % of control
- T/C [18]: 102 % of control
- T/C [19]: 94 % of control

SMILES: O/N=C/c1ccc2c(c1)OCO2
- T/C [4]: 99 % of control
- T/C [5]: 100 % of control
- T/C [6]: 87 % of control

SMILES: c1cc2ccc3ccc4ccc5ccc6ccc1c1c2c3c4c5c61
- T/C (dose: 12.5 mg/kg/injection, schedule: Q01DX001 (ip), vehicle: Klucel (hydroxypropylcellulose) (HPC)): 100 % of control
- T/C (dose: 25.0 mg/kg/injection, schedule: Q01DX001 (ip), vehicle: Klucel (hydroxypropylcellulose) (HPC)): 104 % of control
- T/C [9]: 96 % of control
- T/C (dose: 100.0 mg/kg/injection, schedule: Q01DX001 (ip), vehicle: Klucel (hydroxypropylcellulose) (HPC)): 96 % of control

SMILES: OCCN1CCN(CCCN2c3cc(Cl)ccc3Sc3ccsc32)CC1
- T/C [1]: 97 % of control
- T/C [2]: 97 % of control

SMILES: COC(=O)c1cc(OC)cc(C)c1OC(=Nc1cccc(Cl)c1C)c1ccccc1
- T/C [1]: 97 % of control
- T/C [2]: 92 % of control
- T/C [3]: 96 % of control

SMILES: CC[N+](CC)=c1ccc2nc3c(cc(Nc4ccccc4)c4ccccc43)oc-2c1.[Cl][Zn][Cl]
- T/C (dose: 60.0 mg/kg/injection, schedule: Q01DX005 (ip), vehicle: Klucel (hydroxypropylcellulose) (HPC)): 98 % of control
- T/C (dose: 120.0 mg/kg/injection, schedule: Q01DX005 (ip), vehicle: Klucel (hydroxypropylcellulose) (HPC)): 107 % of control

SMILES: C=CCCC/C=C/CN1CCOCC1
- T/C [10]: 103 % of control
- T/C [11]: 105 % of control

SMILES: COc1cc2c(c(OC)c1OC)-c1ccc(SC)c(=O)cc1[C@@H](NC(=O)NCCCl)CC2
- T/C (dose: 1.5 mg/kg/injection, schedule: Q01DX009 (ip), vehicle: water): 110 % of control
- T/C (dose: 6.0 mg/kg/injection, schedule: Q01DX009 (ip), vehicle: water): 150 % of control
- T/C (dose: 12.0 mg/kg/injection, schedule: Q01DX009 (ip), vehicle: water): 155 % of control
- T/C (dose: 13.5 mg/kg/injection, schedule: Q01DX009 (ip), vehicle: water): 150 % of control and 163 % of control

SMILES: CCC[CH2][Sn]([CH2]CCC)([CH2]CCC)[S]C(=S)NCCNC(=S)[S][Sn]([CH2]CCC)([CH2]CCC)[CH2]CCC
- T/C (dose: 6.25 mg/kg/injection, schedule: Q01DX010 (ip), vehicle: saline): 120 % of control

SMILES: CC(=O)OC(OC(C)=O)C(CSC#N)SC#N (stereo not given)
- T/C (dose: 6.25 mg/kg/injection, schedule: Q01DX005 (ip), vehicle: Klucel (hydroxypropylcellulose) (HPC)): 99 % of control
- T/C [7]: 99 % of control
- T/C [8]: 99 % of control
- T/C [1]: 102 % of control
- T/C [2]: 96 % of control
- T/C [3]: 113 % of control

SMILES: CCCCc1c(OS(=O)(=O)c2ccc(C)cc2)c(C#N)c2[nH]c3ccccc3n2c1=O
- T/C [14]: 91 % of control
- T/C [15]: 96 % of control
- T/C [16]: 89 % of control

SMILES: N#Cc1[nH]ncc1[N+](=O)[O-]
- T/C (dose: 25.0 mg/kg/injection, schedule: Q01DX001 (ip), vehicle: saline with Tween-80): 100 % of control
- T/C (dose: 50.0 mg/kg/injection, schedule: Q01DX001 (ip), vehicle: saline with Tween-80): 106 % of control
- T/C (dose: 100.0 mg/kg/injection, schedule: Q01DX001 (ip), vehicle: saline with Tween-80): 101 % of control

SMILES: [O-][n+]1cc2ccccc2c2ccccc21
- T/C (dose: 100.0 mg/kg/injection, schedule: Q04DX003 (ip), vehicle: saline): 100 % of control
- T/C (dose: 200.0 mg/kg/injection, schedule: Q04DX003 (ip), vehicle: saline): 100 % of control
- T/C (dose: 400.0 mg/kg/injection, schedule: Q04DX003 (ip), vehicle: saline): 99 % of control

SMILES: CC(C)(Oc1ccc(Cl)cc1)C(=O)NC(CS(C)(=O)=O)C(=O)O (stereo not given)
- T/C (dose: 50.0 mg/kg/injection, schedule: Q01DX005 (ip), vehicle: saline): 99 % of control
- T/C (dose: 100.0 mg/kg/injection, schedule: Q01DX005 (ip), vehicle: saline): 99 % of control
- T/C (dose: 200.0 mg/kg/injection, schedule: Q01DX005 (ip), vehicle: saline): 100 % of control

SMILES: O=[N+]([O-])c1cc(F)ccc1O
- T/C (dose: 6.25 mg/kg/injection, schedule: Q01DX009 (ip), vehicle: saline with Tween-80): 95 % of control
- T/C (dose: 12.5 mg/kg/injection, schedule: Q01DX009 (ip), vehicle: saline with Tween-80): 100 % of control
- T/C (dose: 25.0 mg/kg/injection, schedule: Q01DX009 (ip), vehicle: saline with Tween-80): 104 % of control

SMILES: CC1=C(c2ccccc2)OS(=O)(=O)CC1N(C)C (stereo not given)
- T/C [12]: 99 % of control
- T/C (dose: 100.0 mg/kg/injection, schedule: Q01DX005 (ip), vehicle: saline with Tween-80): 99 % of control
- T/C [13]: 98 % of control

SMILES: CCCCOc1ccc(C(=O)N/N=C(\C)[C@]2(O)Cc3c(O)c4c(c(O)c3[C@@H](OC3CC(N)C(O)C(C)O3)C2)C(=O)c2c(OC)cccc2C4=O)cc1 (stereo not given in full)
- T/C (dose: 0.12 mg/kg/injection, schedule: Q01DX009 (ip), vehicle: water): 115 % of control
- T/C (dose: 0.5 mg/kg/injection, schedule: Q01DX009 (ip), vehicle: water): 150 % of control and 151 % of control
- T/C (dose: 1.0 mg/kg/injection, schedule: Q01DX009 (ip), vehicle: water): 152 % of control and 160 % of control
- T/C (dose: 2.0 mg/kg/injection, schedule: Q01DX009 (ip), vehicle: water): 160 % of control and 179 % of control
- T/C (dose: 5.0 mg/kg/injection, schedule: Q01DX001 (ip), vehicle: water): 153 % of control
- T/C (dose: 20.0 mg/kg/injection, schedule: Q01DX001 (ip), vehicle: water): 106 % of control

SMILES: CC(=O)SSC12CC3CC(CC(C3)C1)C2
- T/C (dose: 30.0 mg/kg/injection, schedule: Q01DX005 (ip), vehicle: saline with Tween-80): 100 % of control
- T/C [14]: 100 % of control and 101 % of control
- T/C [15]: 100 % of control and 104 % of control
